Assay results published in the NIST ThermoML archive (doi:10.1016/j.tca.2015.08.013).
Numbers after ± are expanded uncertainties.

Conditions: for surface tension liquid-gas: Drop volume; for mass density / kinematic viscosity / speed of sound / vapor or sublimation pressure: Liquid; for mass density: Vibrating tube method; for kinematic viscosity / speed of sound: 101.33 kPa; for kinematic viscosity: Capillary tube (Ostwald / Ubbelohde) method; for speed of sound: Sing-around technique in a fixed-path interferometer; for vapor or sublimation pressure: Ebulliometric method (Recirculating still)

c1ccoc1 [furan]
Conditions	kinematic viscosity [m2/s]	speed of sound [m/s]	surface tension liquid-gas [mN/m]	vapor or sublimation pressure [kPa]
278.15 K	4.59e-07 ± 9.9e-09	1228.1 ± 1.5	26.03 ± 0.23	–
280.65 K	4.48e-07 ± 9.7e-09	1216.2 ± 1.5	25.69 ± 0.23	–
283.15 K	4.39e-07 ± 9.5e-09	1204.5 ± 1.5	25.32 ± 0.23	–
284.4 K	–	–	–	45.59 ± 0.21
285.65 K	4.3e-07 ± 9.3e-09	1192.8 ± 1.5	24.97 ± 0.23	–
285.86 K	–	–	–	48.66 ± 0.21
287.16 K	–	–	–	51.63 ± 0.21
288.15 K	4.2e-07 ± 9.1e-09	1181 ± 1.5	24.59 ± 0.22	–
288.34 K	–	–	–	54.23 ± 0.21
289.2 K	–	–	–	56.05 ± 0.21
290.4 K	–	–	–	59.18 ± 0.21
290.65 K	4.09e-07 ± 8.9e-09	1169.2 ± 1.5	24.18 ± 0.22	–
291.7 K	–	–	–	62.26 ± 0.21
292.2 K	–	–	–	63.6 ± 0.21
292.79 K	–	–	–	64.53 ± 0.22
293.15 K	3.99e-07 ± 8.6e-09	1157.4 ± 1.5	23.79 ± 0.22	–
294.55 K	–	–	–	69.25 ± 0.22
295.55 K	–	–	–	72.4 ± 0.22
295.65 K	3.89e-07 ± 8.4e-09	1145.3 ± 1.5	23.35 ± 0.22	–
296.9 K	–	–	–	76.25 ± 0.22
297.36 K	–	–	–	77.63 ± 0.22
298.15 K	3.79e-07 ± 8.2e-09	1133.1 ± 1.5	22.94 ± 0.21	–
298.44 K	–	–	–	80.9 ± 0.23
299.63 K	–	–	–	84.59 ± 0.23
300.65 K	3.7e-07 ± 8e-09	1120.9 ± 1.5	22.55 ± 0.21	–
300.76 K	–	–	–	88.22 ± 0.23
301.52 K	–	–	–	90.81 ± 0.23
302.4 K	–	–	–	93.89 ± 0.23
303.15 K	3.61e-07 ± 7.8e-09	1108.8 ± 1.5	22.08 ± 0.21	–
303.86 K	–	–	–	99.07 ± 0.23
304.46 K	–	–	–	101.33 ± 0.24

Conditions	mass density [kg/m3]
278.15 K, 99 kPa	959.086 ± 0.23
280.65 K, 99 kPa	955.729 ± 0.23
283.15 K, 99 kPa	952.358 ± 0.23
283.15 K, 100 kPa	952.36 ± 0.29
283.15 K, 2500 kPa	954.38 ± 0.29
283.15 K, 5000 kPa	956.94 ± 0.3
283.15 K, 7500 kPa	959.39 ± 0.3
283.15 K, 10000 kPa	961.81 ± 0.3
283.15 K, 20000 kPa	970.97 ± 0.31
283.15 K, 30000 kPa	979.35 ± 0.31
283.15 K, 40000 kPa	987.2 ± 0.3
283.15 K, 50000 kPa	994.5 ± 0.3
283.15 K, 60000 kPa	1001.42 ± 0.29
285.65 K, 99 kPa	948.976 ± 0.23
288.15 K, 99 kPa	945.579 ± 0.23
288.15 K, 100 kPa	945.58 ± 0.29
288.15 K, 2500 kPa	947.81 ± 0.29
288.15 K, 5000 kPa	950.42 ± 0.3
288.15 K, 7500 kPa	953.03 ± 0.3
288.15 K, 10000 kPa	955.59 ± 0.3
288.15 K, 20000 kPa	965.03 ± 0.31
288.15 K, 30000 kPa	973.69 ± 0.31
288.15 K, 40000 kPa	981.69 ± 0.31
288.15 K, 50000 kPa	989.18 ± 0.3
288.15 K, 60000 kPa	996.21 ± 0.3
290.65 K, 99 kPa	942.167 ± 0.23
293.15 K, 99 kPa	938.739 ± 0.23
293.15 K, 100 kPa	938.74 ± 0.29
293.15 K, 2500 kPa	940.99 ± 0.29
293.15 K, 5000 kPa	943.7 ± 0.3
293.15 K, 7500 kPa	946.38 ± 0.3
293.15 K, 10000 kPa	948.97 ± 0.3
293.15 K, 20000 kPa	958.75 ± 0.31
293.15 K, 30000 kPa	967.71 ± 0.32
293.15 K, 40000 kPa	976.04 ± 0.32
293.15 K, 50000 kPa	983.77 ± 0.31
293.15 K, 60000 kPa	990.98 ± 0.3
295.65 K, 99 kPa	935.294 ± 0.23
298.15 K, 99 kPa	931.835 ± 0.23
298.15 K, 100 kPa	931.84 ± 0.29
298.15 K, 2500 kPa	934.31 ± 0.29
298.15 K, 5000 kPa	937.14 ± 0.3
298.15 K, 7500 kPa	939.92 ± 0.3
298.15 K, 10000 kPa	942.68 ± 0.31
298.15 K, 20000 kPa	952.79 ± 0.32
298.15 K, 30000 kPa	961.99 ± 0.32
298.15 K, 40000 kPa	970.53 ± 0.32
298.15 K, 50000 kPa	978.42 ± 0.32
298.15 K, 60000 kPa	985.81 ± 0.31
300.65 K, 99 kPa	928.357 ± 0.23
303.15 K, 99 kPa	924.861 ± 0.23
303.15 K, 100 kPa	924.86 ± 0.29
303.15 K, 2500 kPa	927.4 ± 0.3
303.15 K, 5000 kPa	930.33 ± 0.3
303.15 K, 7500 kPa	933.21 ± 0.3
303.15 K, 10000 kPa	936 ± 0.31
303.15 K, 20000 kPa	946.46 ± 0.32
303.15 K, 30000 kPa	956.04 ± 0.33
303.15 K, 40000 kPa	964.82 ± 0.33
303.15 K, 50000 kPa	972.99 ± 0.33
303.15 K, 60000 kPa	980.62 ± 0.32
308.15 K, 2500 kPa	920.6 ± 0.3
308.15 K, 5000 kPa	923.71 ± 0.3
308.15 K, 7500 kPa	926.73 ± 0.31
308.15 K, 10000 kPa	929.66 ± 0.31
308.15 K, 20000 kPa	940.5 ± 0.32
308.15 K, 30000 kPa	950.3 ± 0.33
308.15 K, 40000 kPa	959.34 ± 0.33
308.15 K, 50000 kPa	967.69 ± 0.33
308.15 K, 60000 kPa	975.44 ± 0.33
313.15 K, 2500 kPa	913.48 ± 0.3
313.15 K, 5000 kPa	916.68 ± 0.3
313.15 K, 7500 kPa	919.8 ± 0.31
313.15 K, 10000 kPa	922.81 ± 0.31
313.15 K, 20000 kPa	934.04 ± 0.33
313.15 K, 30000 kPa	944.27 ± 0.34
313.15 K, 40000 kPa	953.57 ± 0.34
313.15 K, 50000 kPa	962.21 ± 0.34
313.15 K, 60000 kPa	970.23 ± 0.34
318.15 K, 2500 kPa	906.59 ± 0.3
318.15 K, 5000 kPa	909.88 ± 0.3
318.15 K, 7500 kPa	913.18 ± 0.31
318.15 K, 10000 kPa	916.44 ± 0.31
318.15 K, 20000 kPa	928.06 ± 0.33
318.15 K, 30000 kPa	938.56 ± 0.34
318.15 K, 40000 kPa	948.09 ± 0.35
318.15 K, 50000 kPa	956.88 ± 0.35
318.15 K, 60000 kPa	965.06 ± 0.35
323.15 K, 2500 kPa	899.25 ± 0.3
323.15 K, 5000 kPa	902.71 ± 0.3
323.15 K, 7500 kPa	906.1 ± 0.31
323.15 K, 10000 kPa	909.42 ± 0.32
323.15 K, 20000 kPa	921.53 ± 0.33
323.15 K, 30000 kPa	932.47 ± 0.35
323.15 K, 40000 kPa	942.39 ± 0.35
323.15 K, 50000 kPa	951.44 ± 0.36
323.15 K, 60000 kPa	959.86 ± 0.36
328.15 K, 2500 kPa	892.18 ± 0.3
328.15 K, 5000 kPa	895.9 ± 0.31
328.15 K, 7500 kPa	899.49 ± 0.31
328.15 K, 10000 kPa	902.97 ± 0.32
328.15 K, 20000 kPa	915.52 ± 0.34
328.15 K, 30000 kPa	926.72 ± 0.35
328.15 K, 40000 kPa	936.8 ± 0.36
328.15 K, 50000 kPa	946.08 ± 0.36
328.15 K, 60000 kPa	954.71 ± 0.37
333.15 K, 2500 kPa	884.69 ± 0.3
333.15 K, 5000 kPa	888.51 ± 0.31
333.15 K, 7500 kPa	892.17 ± 0.31
333.15 K, 10000 kPa	895.74 ± 0.32
333.15 K, 20000 kPa	908.84 ± 0.34
333.15 K, 30000 kPa	920.52 ± 0.36
333.15 K, 40000 kPa	931.04 ± 0.37
333.15 K, 50000 kPa	940.62 ± 0.37
333.15 K, 60000 kPa	949.48 ± 0.37
338.15 K, 2500 kPa	877.34 ± 0.3
338.15 K, 5000 kPa	881.44 ± 0.31
338.15 K, 7500 kPa	885.37 ± 0.31
338.15 K, 10000 kPa	889.16 ± 0.32
338.15 K, 20000 kPa	902.71 ± 0.34
338.15 K, 30000 kPa	914.72 ± 0.36
338.15 K, 40000 kPa	925.5 ± 0.37
338.15 K, 50000 kPa	935.32 ± 0.38
338.15 K, 60000 kPa	944.34 ± 0.38
